Reference: ChEMBL document CHEMBL1201862, “PubChem BioAssay data set” (2004)
The source made the active and inactive calls.

Assays:
[1] = HEp-2 cell cytotoxicity, dose response, cytotoxicity control for RSV inhibitor project, HTS (AID 2410); format: functional; details: human respiratory syncytial virus
HT-1080 = assay: cytotoxicity in HT1080 fibrosarcoma cells, cell-based, fluorescence readout (AID 620); format: functional; details: Homo sapiens
[2] = biological target: Luciferin 4-monooxygenase (Photinus pyralis, UniProt P08659); assay: Counter Screen for Luciferase-based Assay Positives. [Related pubchem assays: 620, 618, 411 ]
Chain of Luciferin 4-monooxygenase (P08659 whole entry): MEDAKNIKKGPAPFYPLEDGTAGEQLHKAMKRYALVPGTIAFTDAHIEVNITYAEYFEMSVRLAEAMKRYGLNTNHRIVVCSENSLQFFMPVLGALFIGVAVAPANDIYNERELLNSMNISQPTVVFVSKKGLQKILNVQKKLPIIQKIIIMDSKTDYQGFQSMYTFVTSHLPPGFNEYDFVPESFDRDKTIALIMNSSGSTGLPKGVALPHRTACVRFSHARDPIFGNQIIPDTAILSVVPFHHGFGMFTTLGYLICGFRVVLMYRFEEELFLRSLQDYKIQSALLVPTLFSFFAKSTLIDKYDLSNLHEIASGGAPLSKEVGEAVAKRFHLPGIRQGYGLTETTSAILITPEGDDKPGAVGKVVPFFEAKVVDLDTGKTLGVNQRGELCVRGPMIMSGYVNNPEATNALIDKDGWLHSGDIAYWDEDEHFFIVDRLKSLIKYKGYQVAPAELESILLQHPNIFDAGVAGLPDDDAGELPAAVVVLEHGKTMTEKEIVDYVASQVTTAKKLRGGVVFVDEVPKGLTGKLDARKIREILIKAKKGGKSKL

[3] = HepG2 cell cytotoxicity, dose response, cytotoxicity control, plate reader, cherry-pick, antagonist series (AID 743416); format: functional, cell-based
[4] = biological target: T1, Heat shock factor protein 1 (Mus musculus, UniProt P38532); assay: inhibition of MG132-induced HSE-luciferase signal, confirmation, cell-based, NIH3T3, luminescence, dose retest (AID 2382); format: functional;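 further: NIH3T3 fibroblasts with HSF1-driven luciferase reporter stressed by proteasome inhibitor MG132; luminescence from HSF1-driven luciferase expression after 8 hours of MG132 stress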
T1 sequence (P38532 whole entry): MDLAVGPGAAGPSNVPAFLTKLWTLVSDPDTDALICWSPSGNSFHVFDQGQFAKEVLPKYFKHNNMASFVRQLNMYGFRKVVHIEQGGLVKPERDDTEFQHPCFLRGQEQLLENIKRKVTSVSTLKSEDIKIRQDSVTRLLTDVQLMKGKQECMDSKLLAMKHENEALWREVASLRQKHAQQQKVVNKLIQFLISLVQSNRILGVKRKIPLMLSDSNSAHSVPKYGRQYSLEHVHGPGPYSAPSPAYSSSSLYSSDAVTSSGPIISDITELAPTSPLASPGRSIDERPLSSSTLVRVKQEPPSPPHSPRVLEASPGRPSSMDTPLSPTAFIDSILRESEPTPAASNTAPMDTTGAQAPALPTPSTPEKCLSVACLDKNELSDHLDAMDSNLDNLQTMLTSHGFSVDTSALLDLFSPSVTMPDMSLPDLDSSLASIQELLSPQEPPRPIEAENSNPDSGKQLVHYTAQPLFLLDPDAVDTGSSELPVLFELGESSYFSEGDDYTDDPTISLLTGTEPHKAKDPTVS

[5] = luciferase reporter signal reduction – luminescence, H4-C neuroglioblastoma cells, dose response (AID 2458); format: functional, cell-based;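 further: H4 neuroglioblastoma cells stably carrying a luciferase reporter gene fusion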
[6] = inhibitors of SNCA 5'UTR-driven reporter translation, confirmation, H4 neuroglioma cells, luminescence (AID 1988); format: functional, cell-based
[7] = Luminescence Cell-Based Dose Response HTS to Identify Inhibitors of 5'UTR Stem-Loop Driven Prion Protein mRNA Translation in H4 Neuroglioblastoma Cells. [Related pubchem assays: 1827 (Project Summary), 1813 (Primary HTS)]; format: functional
cells [8] = format: functional, cell-based
[9] = LGR2 antagonists, dose response, cell-based, HEK293, CRE-luciferase reporter, cherry pick, set 2 (AID 743343); format: functional;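 further: transfected cells were stimulated with diluted bursicon conditioned medium after compound addition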
[10] = Luminescence-based counterscreen assay for KLF5 inhibitors: dose response cell-based high throughput screening assay to identify cytotoxic compounds using the IEC-6 intestinal epithelial cell line. [Related pubchem assays: 1700 (Primary screen.), 1834 (Confirmation screen.), 1858 (Summary AID.), 1905 (Counterscreen.)]; format: functional
[11] = inhibitors of firefly luciferase expression or activity, dose response, H4 neuroglioma cells, luminescence (AID 1990); format: functional, cell-based
[12] = MC4R antagonists, dose response, counter-screen for LGR2 antagonist project, cell-based, plate reader, cherry pick (AID 743444); format: functional;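 further: transfected HEK 293 cells stimulated with alpha-MSH peptide; potency of inhibitors of the alpha-MSH evoked signal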
[13] = HEK293 cell cytotoxicity, dose response, cytotoxicity control, plate reader, cherry-picked samples (AID 743446); format: functional, cell-based
[14] = inhibitors of SNCA 5'UTR-driven translation, confirmation, luminescence, H4 neuroglioblastoma cells, dose confirmation (AID 2454); format: functional, cell-based;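 further: H4 neuroglioblastoma cells carrying an alpha-synuclein 5'UTR luciferase reporter; potency for inhibition of the luciferase signal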
[15] = biological target: Inward rectifier potassium channel 2 (Mus musculus, UniProt P35561); assay: Manual electrophysiological patch clamp assay for SAR compounds that inhibit/block inward-rectifying potassium ion channel Kir2.1. [Related pubchem assays: 1843 (Summary assay for Kir2.1 inhibitor assays.), 1672 (Primary HTS of 305616 compounds where 2592 were identified as active.)]; format: functional
Chain of Inward rectifier potassium channel 2 (P35561 whole entry): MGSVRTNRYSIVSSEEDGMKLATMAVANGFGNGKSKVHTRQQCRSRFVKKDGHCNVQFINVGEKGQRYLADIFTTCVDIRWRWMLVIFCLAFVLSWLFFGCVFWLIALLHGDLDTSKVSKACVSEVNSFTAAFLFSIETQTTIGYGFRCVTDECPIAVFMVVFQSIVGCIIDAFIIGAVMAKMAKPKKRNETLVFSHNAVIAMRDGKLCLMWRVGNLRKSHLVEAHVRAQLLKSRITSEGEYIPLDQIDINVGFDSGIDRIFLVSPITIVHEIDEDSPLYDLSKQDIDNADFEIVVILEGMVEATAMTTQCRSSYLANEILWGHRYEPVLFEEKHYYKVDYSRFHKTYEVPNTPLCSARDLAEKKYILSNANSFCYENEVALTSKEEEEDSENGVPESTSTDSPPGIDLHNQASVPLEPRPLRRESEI

cells [16] = assay: cells
NADPH oxidase 1 = biological target: T2, NADPH oxidase 1 (Homo sapiens, UniProt Q9Y5S8); format: functional, cell-based;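 further: Cell-based assay with luminescence read-out, IC50 derived from inhibitor dose-response curves; intracellular ROS from endogenous NOX1 in intact HT29 colon cancer cells; potency of inhibitors that lower the ROS luminescence signal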
T2 sequence (Q9Y5S8 whole entry): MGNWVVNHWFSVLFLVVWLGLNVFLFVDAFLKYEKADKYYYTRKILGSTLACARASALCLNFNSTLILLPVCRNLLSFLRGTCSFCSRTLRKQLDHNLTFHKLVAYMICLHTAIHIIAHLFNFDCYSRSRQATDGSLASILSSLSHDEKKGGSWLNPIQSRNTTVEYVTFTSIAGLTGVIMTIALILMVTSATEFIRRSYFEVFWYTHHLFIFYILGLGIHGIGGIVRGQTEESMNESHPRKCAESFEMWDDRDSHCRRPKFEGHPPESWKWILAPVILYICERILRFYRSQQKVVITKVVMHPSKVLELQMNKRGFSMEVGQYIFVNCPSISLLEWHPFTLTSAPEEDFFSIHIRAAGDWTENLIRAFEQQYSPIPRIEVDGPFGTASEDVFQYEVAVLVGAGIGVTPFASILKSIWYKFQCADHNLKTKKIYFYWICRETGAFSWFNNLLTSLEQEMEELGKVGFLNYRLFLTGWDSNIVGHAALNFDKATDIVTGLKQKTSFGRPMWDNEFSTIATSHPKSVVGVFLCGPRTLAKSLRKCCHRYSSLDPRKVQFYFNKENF

Estrogen receptor = biological target: T3, Estrogen receptor (Homo sapiens, UniProt P03372); assay: potentiators of ERα–SRC-1 coactivator binding, dose response, biochemical, TR-FRET, ERα LBD (AID 737)
T3 sequence (P03372 whole entry): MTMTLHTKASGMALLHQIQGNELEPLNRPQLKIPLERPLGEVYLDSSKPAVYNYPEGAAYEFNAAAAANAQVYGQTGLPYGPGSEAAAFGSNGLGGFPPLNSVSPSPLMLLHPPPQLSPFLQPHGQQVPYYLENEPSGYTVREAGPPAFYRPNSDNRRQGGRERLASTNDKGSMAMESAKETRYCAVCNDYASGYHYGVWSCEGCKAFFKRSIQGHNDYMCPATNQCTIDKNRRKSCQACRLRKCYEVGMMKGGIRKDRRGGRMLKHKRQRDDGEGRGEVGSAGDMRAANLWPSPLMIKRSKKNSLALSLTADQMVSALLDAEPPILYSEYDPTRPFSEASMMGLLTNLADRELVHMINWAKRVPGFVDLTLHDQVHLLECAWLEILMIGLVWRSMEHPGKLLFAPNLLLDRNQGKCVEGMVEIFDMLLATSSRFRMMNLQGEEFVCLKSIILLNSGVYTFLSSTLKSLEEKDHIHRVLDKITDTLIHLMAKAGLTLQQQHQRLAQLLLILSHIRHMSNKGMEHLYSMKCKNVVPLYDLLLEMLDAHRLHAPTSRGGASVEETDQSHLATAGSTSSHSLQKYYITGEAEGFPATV

SMILES: COc1cc(SC)ccc1C(=O)Nc1ccc2c(c1)OCCO2
- CC50 [1]: 19.9 µM (active)
- EC50 (HT-1080): > 50 µM (not active)
- EC50 [2]: 75.4 µM (active)

SMILES: CCc1ccn2cc(-c3cc(-c4ccccc4)no3)nc2c1
- AC50 [3]: 25.4 µM (active)
- EC50 [4]: < 0.16 µM (active)
- EC50 [5]: 1.2 µM (active)
- EC50 [6]: 0.13 µM (active)
- EC50 [7]: < 0.1 µM (active)
- EC50 (cells [8]): > 12 µM (inconclusive)
- AC50 [9]: 0.805 µM (active)
- IC50 [10]: > 39.8 µM (not active)
- EC50 [11]: 0.207 µM (active)
- AC50 [12]: 0.701 µM (active)
- AC50 [13]: > 52 µM (inactive)
- EC50 [14]: 1.12 µM (active)

SMILES: COc1ccc(CNCc2ccc(Cl)cc2Cl)cc1
- IC50 [15]: 3.13 µM (active)

SMILES: CCOc1ccc(CNC(=O)c2cc3oc4ccccc4c3n2C)cc1
- CC50 [1]: 39 µM (active)
- IC50 (cells [16]): 4.82 µM (active)

SMILES: O=C1Nc2ccccc2/C1=N/NC(=S)Nc1ccccc1
- IC50 (NADPH oxidase 1): > 17 µM (not active)

SMILES: Cc1cccc(N2CCN(C(=O)c3cc4c(=O)n(C)c5ccccc5c4n3C)CC2)c1C
- EC50 (Estrogen receptor): 12.8 µM (active)

SMILES: O=C(CCn1c(=O)c2sccc2n(Cc2cc(=O)n3ccccc3n2)c1=O)NCc1ccco1
- IC50 (cells [16]): 24.4 µM (active)

SMILES: COc1cc(NC(=O)c2cccs2)c(C(=O)OCC(=O)NC(=O)NCc2ccccc2)cc1OC
- EC50 (Estrogen receptor): 1.58 µM (active)
